Results taken from PubChem BioAssay AID1918998 (Molecular Pharmacology Branch, DTP, NCI, 2023).

Tested on: 521955-158-R2-J5-PDC complex spheroid growth
Experiment: Anticancer human tumor 521955-158-R2-J5-PDC patient-derived pancreatic carcinoma cell line growth inhibition [AhR]
Conditions: for IC50: curve of first compound; for viability, T/C: stronger effect = lower value
Outline: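 Agents were dosed in half-log steps down from roughly clinical Cmax, or from 10 microM where Cmax was unknown, alone and with AhR antagonists. Read-out: percent test/control growth of tumor spheroids containing HUVEC and MSC stromal cells.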

[1] = second compound 0.1 µM, first compound 0.00949 µM
[2] = second compound 0.1 µM, first compound 0.03 µM
[3] = second compound 0.1 µM, first compound 0.0949 µM
[4] = second compound 0.1 µM, first compound 0.3 µM
[5] = second compound 0.316 µM, first compound 0.00949 µM
[6] = second compound 0.316 µM, first compound 0.03 µM
[7] = second compound 0.316 µM, first compound 0.0949 µM
[8] = second compound 0.316 µM, first compound 0.3 µM
[9] = second compound 1 µM, first compound 0.00949 µM
[10] = second compound 1 µM, first compound 0.03 µM
[11] = second compound 1 µM, first compound 0.0949 µM
[12] = second compound 1 µM, first compound 0.3 µM
[13] = second compound 3.16 µM, first compound 0.00949 µM
[14] = second compound 3.16 µM, first compound 0.03 µM
[15] = second compound 3.16 µM, first compound 0.0949 µM
[16] = second compound 3.16 µM, first compound 0.3 µM
[17] = second compound 10 µM, first compound 0.00949 µM
[18] = second compound 10 µM, first compound 0.03 µM
[19] = second compound 10 µM, first compound 0.0949 µM
[20] = second compound 10 µM, first compound 0.3 µM
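Wherever viability, T/C is given: spheroids mix tumor cells with HUVEC endothelium and human MSC stroma; luminescence taken as viability surrogate after a week of drug exposure.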

COc1ccc([C@@H](O)c2cc(-c3ncnc4cc(N5CCOCC5)ccc34)c(F)cc2Cl)nn1 + Cc1cncc(-c2nc(NCCc3c[nH]c4ccccc34)c3ncn(C(C)C)c3n2)c1
IC50 (second compound 0.1 µM): > 10000 nM | IC50 (second compound 0.316 µM): > 10000 nM | IC50 (second compound 1 µM): > 10000 nM | IC50 (second compound 3.16 µM): > 10000 nM | IC50 (second compound 10 µM): > 10000 nM | viability, T/C (second compound 0.1 µM, first compound 0.0316 µM): 102% | viability, T/C (second compound 0.1 µM, first compound 0.1 µM): 102% | viability, T/C (second compound 0.1 µM, first compound 0.316 µM): 99.7% | viability, T/C (second compound 0.1 µM, first compound 1 µM): 78.1% | viability, T/C (second compound 0.1 µM, first compound 3.16 µM): 65.8% | viability, T/C (second compound 0.1 µM, first compound 10 µM): 50.8% | viability, T/C (second compound 0.316 µM, first compound 0.0316 µM): 118% | viability, T/C (second compound 0.316 µM, first compound 0.1 µM): 116% | viability, T/C (second compound 0.316 µM, first compound 0.316 µM): 113% | viability, T/C (second compound 0.316 µM, first compound 1 µM): 85.1% | viability, T/C (second compound 0.316 µM, first compound 3.16 µM): 75.1% | viability, T/C (second compound 0.316 µM, first compound 10 µM): 54.4% | viability, T/C (second compound 1 µM, first compound 0.0316 µM): 115% | viability, T/C (second compound 1 µM, first compound 0.1 µM): 127% | viability, T/C (second compound 1 µM, first compound 0.316 µM): 113% | viability, T/C (second compound 1 µM, first compound 1 µM): 104% | viability, T/C (second compound 1 µM, first compound 3.16 µM): 83.3% | viability, T/C (second compound 1 µM, first compound 10 µM): 61.6% | viability, T/C (second compound 3.16 µM, first compound 0.0316 µM): 134% | viability, T/C (second compound 3.16 µM, first compound 0.1 µM): 153% | viability, T/C (second compound 3.16 µM, first compound 0.316 µM): 130% | viability, T/C (second compound 3.16 µM, first compound 1 µM): 111% | viability, T/C (second compound 3.16 µM, first compound 3.16 µM): 96.3% | viability, T/C (second compound 3.16 µM, first compound 10 µM): 65.9% | viability, T/C (second compound 10 µM, first compound 0.0316 µM): 138% | viability, T/C (second compound 10 µM, first compound 0.1 µM): 131% | viability, T/C (second compound 10 µM, first compound 0.316 µM): 175% | viability, T/C (second compound 10 µM, first compound 1 µM): 114% | viability, T/C (second compound 10 µM, first compound 3.16 µM): 62.9% | viability, T/C (second compound 10 µM, first compound 10 µM): 46.6%

Nc1ncn(C2CC(O)C(CO)S2)c(=O)n1 (stereo not given) + Cc1cncc(-c2nc(NCCc3c[nH]c4ccccc34)c3ncn(C(C)C)c3n2)c1
IC50 (second compound 0.1 µM): > 300 nM | IC50 (second compound 0.316 µM): > 300 nM | IC50 (second compound 1 µM): > 300 nM | IC50 (second compound 3.16 µM): > 300 nM | IC50 (second compound 10 µM): > 300 nM | viability, T/C (second compound 0.1 µM, first compound 0.000949 µM): 115% | viability, T/C (second compound 0.1 µM, first compound 0.003 µM): 113% | viability, T/C [1]: 123% | viability, T/C [2]: 105% | viability, T/C [3]: 93.3% | viability, T/C [4]: 97.8% | viability, T/C (second compound 0.316 µM, first compound 0.000949 µM): 112% | viability, T/C (second compound 0.316 µM, first compound 0.003 µM): 112% | viability, T/C [5]: 117% | viability, T/C [6]: 115% | viability, T/C [7]: 99.5% | viability, T/C [8]: 93.7% | viability, T/C (second compound 1 µM, first compound 0.000949 µM): 126% | viability, T/C (second compound 1 µM, first compound 0.003 µM): 161% | viability, T/C [9]: 158% | viability, T/C [10]: 125% | viability, T/C [11]: 125% | viability, T/C [12]: 99% | viability, T/C (second compound 3.16 µM, first compound 0.000949 µM): 146% | viability, T/C (second compound 3.16 µM, first compound 0.003 µM): 129% | viability, T/C [13]: 122% | viability, T/C [14]: 123% | viability, T/C [15]: 118% | viability, T/C [16]: 128% | viability, T/C (second compound 10 µM, first compound 0.000949 µM): 145% | viability, T/C (second compound 10 µM, first compound 0.003 µM): 143% | viability, T/C [17]: 105% | viability, T/C [18]: 142% | viability, T/C [19]: 114% | viability, T/C [20]: 121%

O=C(C=Cn1cnc(-c2cc(C(F)(F)F)cc(C(F)(F)F)c2)n1)NNc1cnccn1 + Cc1cncc(-c2nc(NCCc3c[nH]c4ccccc34)c3ncn(C(C)C)c3n2)c1
IC50 (second compound 0.1 µM): 218 nM | IC50 (second compound 0.316 µM): 200 nM | IC50 (second compound 1 µM): 251 nM | IC50 (second compound 3.16 µM): 108 nM | IC50 (second compound 10 µM): < 9.49 nM | viability, T/C [1]: 65.6% | viability, T/C [2]: 59.7% | viability, T/C [3]: 53.2% | viability, T/C [4]: 51.5% | viability, T/C (second compound 0.1 µM, first compound 0.949 µM): 37.1% | viability, T/C (second compound 0.1 µM, first compound 3 µM): 26.3% | viability, T/C [5]: 76.1% | viability, T/C [6]: 58.9% | viability, T/C [7]: 57.6% | viability, T/C [8]: 49.3% | viability, T/C (second compound 0.316 µM, first compound 0.949 µM): 39.6% | viability, T/C (second compound 0.316 µM, first compound 3 µM): 29.1% | viability, T/C [9]: 74.5% | viability, T/C [10]: 70% | viability, T/C [11]: 54.5% | viability, T/C [12]: 49.4% | viability, T/C (second compound 1 µM, first compound 0.949 µM): 38.9% | viability, T/C (second compound 1 µM, first compound 3 µM): 24.9% | viability, T/C [13]: 78.7% | viability, T/C [14]: 59.1% | viability, T/C [15]: 53.2% | viability, T/C [16]: 36.8% | viability, T/C (second compound 3.16 µM, first compound 0.949 µM): 40.9% | viability, T/C (second compound 3.16 µM, first compound 3 µM): 23.8% | viability, T/C [17]: 38.3% | viability, T/C [18]: 35.9% | viability, T/C [19]: 28.2% | viability, T/C [20]: 24.7% | viability, T/C (second compound 10 µM, first compound 0.949 µM): 19.7% | viability, T/C (second compound 10 µM, first compound 3 µM): 19.8%
